# Where “and” joins values, the source holds several entries; their conditions need not be identical. Equal values may be shown once.
# Legend:
# [1] = system: Forskolin-stimulated cAMP production; set-up: method as in PMID 29599907; conditions: BON-1 and QGP-1 stimulated with 5-aza-dC and VPA; cited from earlier work
# [2] = system: cell lines HEKsst2 and PC3; experiment: A80/A60 of Lu-177-DOTATATE by colony formation assay, HEKsst2 and PC3; format: cell-based; conditions: 24 h incubation, value used for both HEKsst2 and PC3
# Method: (§1) To show the dose-response relationship, the unstimulated HEKsst2 and PC3 cells were irradiated with absorbed doses of 0.1–7.5 Gy in an X-ray tube.
# (§2) The stimulation process followed the protocol described above.
# (§3) To determine the radiosensitivity and radiotoxicity, the clonogene cell survival was analyzed. Colony formation assays were performed as described earlier. The following steps have been done for each of the treatment procedures. Briefly, after detaching the treated cells, an aliquot of the cell suspension per dose point was distributed in T25 culture flasks for the colony formation test and is placed in an incubator for 7 (HEKsst2) or 10 days (PC3). To stop colony formation, the cells were fixed with ethanol 80% (v/v) followed by staining with crystal violet solution. The colony counting was carried out under a microscope (25× magnification). Colonies of more than 50 cells were scored as survivors. The plating efficiency (PE) and the survival rate (survival fraction SF) were calculated for irradiated and unirradiated cells based on the number of seeded cells.
# PC3 cells [3] = experiment: Radiotoxic dose-response of Lu-177-DOTATATE (CFA), unstimulated PC3; format: cell-based, human; conditions: up to 0.5 MBq/mL, 24 h, compared with HEKsst2
# Method: as §1, §3
# SSTR2 in HEKsst2 cells [4] = experiment: Saturation binding of Lu-177-DOTATATE, HEKsst2; set-up: species or system murine; conditions: for Kd: excess DOTATATE for non-specific binding; for number of binding sites per cell: from Bmax
# Method: (§4) HEK293 cells were obtained from the German Resource Center for Biological Material (DSMZ, Braunschweig, Germany) and grown in Dulbecco’s modified Eagle´s medium supplemented with 10% fetal calf serum (FCS) in a humidified atmosphere containing 5% CO2. Cells were transfected with plasmid, encoding murine HA-tagged SSTR2 receptors using lipofectamine according to the manufacturing instructions (Thermofisher, Darmstadt, Germany). Stable transfectants were selected in the presence of 500 µg/mL G-418 and characterized using radioligand binding assays, Western blot analyses, surface ELISA assays and immunocytochemistry as described previously. Non-transfected HEK293 cells were maintained under equal conditions as HEKsst2 except for the addition of G-418. In the following, HEK293 cells and SSTR2 transfected HEK293 cells are termed as HEK and HEKsst2, respectively. The human prostate carcinoma cell line PC3 (ATCC®, Manassas, VA, USA) was cultured in a RPMI medium with 10% (v/v) FCS and 1% (v/v) non-essential amino acids (NEA). […] The culture medium of each cell line was renewed every 2–3 days. Via a PCR test, each cell line is proven to be free of mycoplasmas.
# Excess DOTATATE (3.5 × 10^−3–7.03 nmol) was used to block receptors and determine the non-specific binding. The uptake data (triplicates per each condition) were fitted to a one-site binding model in GraphPad Prism 9.0 to determine the number of binding sites (Bmax) and the dissociation constant (Kd).
# To determine the Bmax values and the Kd, the GraphPad Prism 9.0 software was used. Confidence Intervals (CI) express a 95% likelihood of the nonlinear fit.
# HEKsst2 cells [5] = experiment: Radiotoxicity of Lu-177-DOTATATE on unstimulated and stimulated HEKsst2 (CFA); format: cell-based; conditions: for Survival Fraction: 24 h
# Method: as §2, §3
# SSTR2 in HEKsst2 cells [6] = experiment: Intracellular Lu-177-DOTATATE uptake, HEKsst2; format: cell-based, murine; conditions: for Lu-177-DOTATATE uptake (intracellular activity, % of total activity normalized to 2.0 × 10^5 cells): 37 °C; for Lu-177-DOTATATE uptake (intracellular activity, % of total activity normalized to 2.0 × 10^5 cells) / increase of Lu-177-DOTATATE uptake by a factor: 50 kBq; for increase of Lu-177-DOTATATE uptake by a factor: stimulated (5.0 µM 5-aza-dC, 1.85 mM VPA) vs unstimulated
# Method: as §4
# After incubation times, the supernatant of the well was removed and the cells were washed twice with PBS (phosphate buffered saline) at 4 °C. Supernatant and washed solution make up the non-bound fraction of the radioligand. The cell layers were lysed with 1 mL 0.1 M NaOH for 10 min at 37 °C. These fractions correspond to the intracellular fraction of radioligand. The activity of all fractions was measured using a Gamma-Counter (Cobra II, Autogamma, Packard®, Canberra Company, Ruesselsheim, Germany). The intracellular activity was expressed as a percentage of the total activity normalized to the cell count of 2.0 × 10^5.
# To examine the statistical significance, an unpaired student’s t-test was used. A difference between two independent samples is significant if the probability of error p ≤ 0.05. For the statistical evaluation, MS Office Excel was used.
# HEKsst2 cells [7] = experiment: Radiotoxic dose-response of Lu-177-DOTATATE (CFA), unstimulated HEKsst2; format: cell-based
# Method: as §1, §3
# PC3 cells [8] = experiment: Radiotoxicity of Lu-177-DOTATATE on unstimulated and stimulated PC3 (CFA); format: cell-based, human; conditions: for cell survival of stimulated vs unstimulated PC3: 5-aza-dC and VPA
# Method: as §2, §3
# PC3 cells [9] = experiment: Intracellular Lu-177-DOTATATE uptake, PC3; format: cell-based, human; conditions: 50 kBq
# Method: HEK293 cells were obtained from the German Resource Center for Biological Material (DSMZ, Braunschweig, Germany) and grown in Dulbecco’s modified Eagle´s medium supplemented with 10% fetal calf serum (FCS) in a humidified atmosphere containing 5% CO2. Cells were transfected with plasmid, encoding murine HA-tagged SSTR2 receptors using lipofectamine according to the manufacturing instructions (Thermofisher, Darmstadt, Germany). Stable transfectants were selected in the presence of 500 µg/mL G-418 and characterized using radioligand binding assays, Western blot analyses, surface ELISA assays and immunocytochemistry as described previously. Non-transfected HEK293 cells were maintained under equal conditions as HEKsst2 except for the addition of G-418. In the following, HEK293 cells and SSTR2 transfected HEK293 cells are termed as HEK and HEKsst2, respectively. […]
# After incubation times, the supernatant of the well was removed and the cells were washed twice with PBS (phosphate buffered saline) at 4 °C. […] The activity of all fractions was measured using a Gamma-Counter (Cobra II, Autogamma, Packard®, Canberra Company, Ruesselsheim, Germany). The intracellular activity was expressed as a percentage of the total activity normalized to the cell count of 2.0 × 10^5. […]
substance,measurement,setting,value
octreotide,inhibition of the Forskolin-stimulated cAMP production,[1],inhibition of the Forskolin-stimulated cAMP production
"(DOTA)-[Tyr3, Thr8]-octreotide [Lu-177-DOTATATE, SSTR2-targeted radioligand, Lu-177 labelled (DOTA)-[Tyr3, Thr8]-octreotide]",A60,[2]; activity equivalent to X-ray D60 (1.2 Gy),136 kBq/mL
same,A80,[2]; activity equivalent to X-ray D80 (0.6 Gy),57.5 kBq/mL
same,decrease of the survival with Lu-177-DOTATATE concentration,PC3 cells [3],much less pronounced
same,Bmax,"SSTR2 in HEKsst2 cells [4]; HEKsst2 stimulated with 5-aza-dC and VPA, 1 h, 37 °C, one-site model, specific binding, 95% CI = 1.08 × 10^−9 to 1.62 × 10^−9 nmol",1.32e-09 nmol
same,Kd,"SSTR2 in HEKsst2 cells [4]; HEKsst2 stimulated with 5-aza-dC and VPA, 1 h, 37 °C, one-site model",4.88 nM
same,number of binding sites per cell,SSTR2 in HEKsst2 cells [4]; HEKsst2 stimulated with 5-aza-dC and VPA,7.95 × 10^5
same,maximum total binding,"SSTR2 in HEKsst2 cells [4]; almost reached at 0.5 MBq/mL Lu-177-DOTATATE, HEKsst2","17 kBq/500,000 cells"
same,Bmax,"SSTR2 in HEKsst2 cells [4]; as restated in the discussion (Figure 3), unstimulated HEKsst2",4.4 × 10^−10 nmol/cell
same,Bmax as bound activity,SSTR2 in HEKsst2 cells [4]; corresponds to Bmax = 4.4 × 10^−10 nmol/cell,"15.5 kBq/500,000 cells"
same,Bmax,"SSTR2 in HEKsst2 cells [4]; unstimulated HEKsst2, 1 h, 37 °C, one-site model, specific binding, 95% CI = 4.15 × 10^−10 to 4.58 × 10^−10 nmol",4.36e-10 nmol
same,Kd,"SSTR2 in HEKsst2 cells [4]; unstimulated HEKsst2, 1 h, 37 °C, one-site model",2.1 nM
same,number of binding sites per cell,SSTR2 in HEKsst2 cells [4]; unstimulated HEKsst2,2.63 × 10^5
same,"number of binding sites per cell, unstimulated compared to stimulated",SSTR2 in HEKsst2 cells [4]; unstimulated vs stimulated HEKsst2,three-fold lower
same,Survival Fraction,"HEKsst2 cells [5]; 57.5 kBq/mL Lu-177-DOTATATE, non-stimulated",0.54
same,Survival Fraction,"HEKsst2 cells [5]; 57.5 kBq/mL Lu-177-DOTATATE, stimulated with 5-aza-dC 0.25 µM and VPA 0.6 mM, normalized to SF = 1, p = 0.1424 vs unstimulated",0.27
same,"factor of increase of radiotoxic effects, stimulated vs unstimulated","HEKsst2 cells [5]; 57.5 kBq/mL, 5-aza-dC 0.25 µM and VPA 0.6 mM",2
same,Survival Fraction,"HEKsst2 cells [5]; 136 kBq/mL Lu-177-DOTATATE, stimulated with 5-aza-dC 0.46 µM and VPA 1.0 mM, normalized to SF = 1, p = 0.0029 vs unstimulated",0.09 and 0.1
same,Survival Fraction,"HEKsst2 cells [5]; 136 kBq/mL Lu-177-DOTATATE, unstimulated",0.42
same,"factor of lower survival, stimulated vs unstimulated (radiotoxic effect increase)","HEKsst2 cells [5]; 136 kBq/mL, 5-aza-dC 0.46 µM and VPA 1.0 mM",4
same,"Lu-177-DOTATATE uptake (intracellular activity, % of total activity normalized to 2.0 × 10^5 cells)","SSTR2 in HEKsst2 cells [6]; 1 h, cells stimulated 5 days with 5.0 µM 5-aza-dC and 1.85 mM VPA, p = 0.0142 vs unstimulated, gamma counter",50.2%
same,"Lu-177-DOTATATE uptake (intracellular activity, % of total activity normalized to 2.0 × 10^5 cells)","SSTR2 in HEKsst2 cells [6]; 1 h, unstimulated cells",1.8%
same,increase in Lu-177-DOTATATE uptake vs unstimulated,"SSTR2 in HEKsst2 cells [6]; 1 h, 0.1 µM 5-aza-dC (and 1.85 mM VPA), p = 0.060","also shows stimulatory effects, no significant difference was found"
same,increase in Lu-177-DOTATATE uptake vs unstimulated,"SSTR2 in HEKsst2 cells [6]; 1 h, 5.0 µM 5-aza-dC and 1.85 mM VPA, p < 0.05",2800%
same,"Lu-177-DOTATATE uptake (intracellular activity, % of total activity normalized to 2.0 × 10^5 cells)","SSTR2 in HEKsst2 cells [6]; 24 h, cells stimulated with 5.0 µM 5-aza-dC and 1.85 mM VPA, p = 0.0090 vs unstimulated",36.2%
same,"Lu-177-DOTATATE uptake (intracellular activity, % of total activity normalized to 2.0 × 10^5 cells)","SSTR2 in HEKsst2 cells [6]; 24 h, unstimulated cells",5.6%
same,increase in Lu-177-DOTATATE uptake vs unstimulated,"SSTR2 in HEKsst2 cells [6]; 24 h, 3.9 µM 5-aza-dC and 1.85 mM VPA, p < 0.05",≈ 640%
same,increase in Lu-177-DOTATATE uptake vs unstimulated,"SSTR2 in HEKsst2 cells [6]; 24 h, 5.0 µM 5-aza-dC and 1.85 mM VPA, p < 0.05",≈ 640%
same,increase of Lu-177-DOTATATE uptake by a factor,"SSTR2 in HEKsst2 cells [6]; 1 h, p = 0.0142",28
same,increase of Lu-177-DOTATATE uptake by a factor,"SSTR2 in HEKsst2 cells [6]; 24 h, p = 0.0090",6.5
same,radioactivity concentration at which all SST2 receptors are engaged (assumed),"HEKsst2 cells [7]; HEKsst2, equal to approximately 0.34 ng/500,000 cells",0.5 MBq/mL
same,decrease of SF values with Lu-177-DOTATATE concentration,"HEKsst2 cells [7]; unstimulated HEKsst2, 0.05-5 MBq/mL, 24 h",strong dose-dependent decrease of the SF values until the receptors seemed to be saturated
same,cell survival of stimulated vs unstimulated PC3,"PC3 cells [8]; 57.5 kBq/mL Lu-177-DOTATATE, not statistically significant, p = 0.5482",higher SF fractions
same,cell survival of stimulated vs unstimulated PC3,"PC3 cells [8]; 136 kBq/mL Lu-177-DOTATATE, p = 0.5078","only a slight, statistically insignificant difference"
same,radiotoxic effects when stimulated with 5-aza-dC and VPA,"PC3 cells [8]; PC3, Lu-177-DOTATATE 57.5 and 136 kBq/mL",no increase regarding the radiotoxic effects
same,Lu-177-DOTATATE uptake values compared to unstimulated cells,"PC3 cells [9]; stimulated PC3, 1 h, p = 0.4935",marginal increase
same,Lu-177-DOTATATE uptake values compared to unstimulated cells,"PC3 cells [9]; stimulated PC3, 24 h, p = 0.3694",marginal increase

# From paper PMC9140012, “Epigenetic-Like Stimulation of Receptor Expression in SSTR2 Transfected HEK293 Cells as a New Therapeutic Strategy” (Cancers, 2022)
